What was measured:
[1] = test system: UPR (XBP-1 spliced form, ATF6, eIF2a); assay: Effect on other arms of the UPR; type: cell-based
GRP78 [2] = assay: GRP78 levels by western blot in normal embryonic kidney 293T cells (Example 7); type: cell-based, human
Method: Example 7. Normal human embryonic kidney 293T cells were either non-stressed (treated with normal media) or stressed (treated with 300 nM EndRet stress & GRP78 inducer Thapsigargin). Cell cultures were either treated with no drug (control) or 200 μM IT-139. GRP78 levels assayed by western blot; β-actin is loading control.

A375 = assay: Mitochondrial potential, JC-1 flow cytometry, A375 (Example 9); type: cell-based, human; conditions: melanoma (A375), 30-200 uM IT-139, 24 h
Method: (§1) Example 9. All human primary and metastatic cell lines were maintained as described by ATCC. All cell lines (HCT116, HT-29, LNCaP, A549 and A375) were seeded in a 6 well plate 24 hours prior to treatment with IT-139 alone. All cell lines were treated with 30 uM, 50 uM, 100 uM and 200 uM with the following exceptions: treatment with 30 uM and 200 uM were omitted for HCT116 and HT29 cell lines respectively. After 24 h incubation with the drug, cells were trypsinized and re-suspended in warm PBS and stained with the JC-1 dye for 30 min at 37 C in the dark. The cells were then washed and re-suspended in warm PBS. The fluorescence of the JC-1 dye was measured by flow cytometry analysis by exciting the dye at 488 nm and detecting the JC-1 monomer through its emission at 530 nm with aggregates of JC-1 being measured at 580 nm. All cell lines treated with Antimycin A at 50 uM as positive control.

A549 = assay: Mitochondrial potential, JC-1 flow cytometry, A549 (Example 9); type: cell-based, human; conditions: lung (A549), 30-200 uM IT-139, 24 h
Method: as §1

HCT116 cells = assay: Electron microscopic evaluation of HCT116 cells (Example 4); type: cell-based, human; conditions: IT-139 200 μM, 24 hours, versus untreated cells
Method: Example 4. HCT116 cell line was seeded one day prior to treatment according to ATCC guidelines. 24 hours after treatment with IT-139 (200 μM), treated and untreated cells were fixed for electron microscopic evaluation.

tumor types = assay: Preclinical anti-tumor and combination studies
MiaPaca2 cells = assay: Cell death of MiaPaca2 cells co-cultured with IL-2 activated PBMCs (Example 10); type: cell-based; conditions: pre-treated with IT-139 100 μM, co-cultured with PBMCs activated with 6000 IU IL-2 for 24 h
Method: Example 10. […] cancer cell line, MiaPaca2, was maintained as described by ATCC. […] MiaPaca2 cells were either untreated or pre-treated with IT-139 (100 μM) and co-cultured with IL-2 activated PBMCs at varying doses. PBMCs were activated using 6000 IU of IL-2 for 24 h.

GRP78 mRNA [3] = assay: Quantitative real-time PCR of GRP78 transcripts in cell lines (Example 2); type: cell-based, human; conditions: IT-139 200 μM, 24 hours
Method: Example 2. All human primary and metastatic cell lines were maintained as described by ATCC. Cells were seeded in a 6 well plate prior to treatment with media alone (control), IT-139 (200 μM) alone, thapsigargin alone (300 nM, to induce cell stress) or IT-139 plus thapsigargin. Cell lysates were collected at 24 hours and total RNA was extracted. Quantitative real-time PCR analysis of GRP78 transcripts normalized to GAPDH.

[4] = test system: normal peripheral blood mononuclear cells (PBMCs); assay: Cell viability, MiaPaca2 cells co-cultured with normal PBMCs (Example 10); type: cell-based; conditions: IT-139 50, 100 and 200 μM, 24 h, co-culture with normal PBMCs
Method: Example 10. […] cancer cell line, MiaPaca2, was maintained as described by ATCC. […] […] PBMCs were activated using 6000 IU of IL-2 for 24 h.

Pol II promoter = assay: ChIP assay, Polymerase II binding to Pol II promoter in HCT116 cells (Example 5); type: cell-based, human; conditions: 200 μM IT-139, 16 hours
Method: (§2) Example 5. Chromatin immunoprecipitation (ChIP) assay was performed to examine Polymerase II binding to Pol II and GRP78 promoter regions in stressed and unstressed cells with IT-139 treatment. HCT116 cells were grown to 80% confluence then treated with 1.5 μg/mL tunicamycin and 200 μM IT-139 or DMSO for 16 hours. Chromatin was cross-linked using formaldehyde. Cells were harvested with trypsin and isolated nuclei were sonicated to yield fragments between 200-1000 bp. Equal amounts of chromatin were incubated with anti-Pol II antibody overnight then pulled down with Staph A cells. Cross-linking was reversed and the DNA was purified using a GeneElute PCR cleanup kit from Sigma. Purified DNA and input samples were subjected to 30 cycles of PCR with primers amplifying promoter regions of Grp78 and Pol II. The products were run on a 4% agarose gel and visualized with ethidium bromide staining. […] Strikingly, IT-139 dropped Polymerase II binding to the Grp78 promoter to zero in both non-stressed and Tu-stressed cells.

GRP78 mRNA [5] = assay: Northern blot of GRP78 mRNA in LnCaP-FGC cells (Example 8); type: cell-based, human; conditions: untreated or 300 nM thapsigargin, indicated concentrations of IT-139
Method: Example 8. Prostate cancer LnCaP-FGC cells were untreated (DMSO only control) or treated with 300 nM thapsigargin (Tg). Cells were co-incubated with the indicated concentrations of IT-139 and Northern blot analysis was performed on cell lysates. β-actin is the loading control.

Grp78 promoter = assay: ChIP assay, Polymerase II binding to Grp78 promoter in HCT116 cells (Example 5); type: cell-based, human; conditions: 200 μM IT-139, 16 hours
Method: as §2

LNCaP = assay: Mitochondrial potential, JC-1 flow cytometry, LNCaP (Example 9); type: cell-based, human; conditions: prostate (LNCaP), 30-200 uM IT-139, 24 h
Method: as §1

GRP78 [6] = assay: Immunohistochemical analysis of GRP78 in HT-29 xenograft tumors (Example 6); type: in vivo; conditions: IT-139 30 mg/kg (q4d), versus strong immunostaining in saline treated tumors
Method: Example 6. Immunohistochemical analysis was performed to analyze the expression of GRP78 in HT-29 xenograft tumors treated with IT-139 at 30 mg/kg (q4d) in comparison to saline treated tumors.

GRP78 [7] = assay: GRP78 expression in ASPC20 cells, order of dosing thapsigargin and IT-139 (Example 11); type: cell-based; conditions: 30 hours
Method: FIG. 12 depicts expression of GRP78 protein levels treated with DMSO; 150 μM IT-139; 1 μM Thapsigargin (Tg); simultaneous treatment of 150 μM IT-139 and 1 μM Tg; 1 μM Tg treated for 6 hours followed by 150 μM IT-139 for 24 hours; and […] IT-139 for 24 hours followed by […] Tg treatment for 24 hours for lanes 1-5, respectively. Lanes 6-12 are the same treatments incubated for a further 24 hours.
Example 11. […] In vitro ASPC20 cells are treated for 48 hours with DMSO (control), 150 μM IT-139, 5 μM gemcitabine, simultaneous 150 μM IT-139 and 5 μM gemcitabine, 5 μM gemcitabine for 24 hours followed by 150 μM IT-139, or 150 μM IT-139 followed by 24 hrs 5 μM gemcitabine. Cells are harvested and counted by trypan blue to calculate the number of dead cells versus viable cells. […] PANC-1 cells are treated in vitro for 48 hours with DMSO (control), 150 μM IT-139, 5 μM gemcitabine, simultaneous 150 μM IT-139 and 5 μM gemcitabine, 5 μM gemcitabine for 24 hours followed by 150 μM IT-139, and 150 μM IT-139 followed by 24 hours 5 μM gemcitabine.

HT29 = assay: Mitochondrial potential, JC-1 flow cytometry, HT29 (Example 9); type: cell-based, human; conditions: HT29, 30 μM IT-139, 24 h
Method: as §1

GRP78 [8] = assay: GRP78 protein level by western blot in cell lines, unstressed or thapsigargin-stressed (Example 1); type: cell-based, human; conditions: IT-139 200 μM, 16 hours
Method: Example 1. All human primary and metastatic cell lines were maintained as described by ATCC. Cells were seeded in a 6 well plate prior to treatment with media alone (control), IT-139 (200 μM) alone, thapsigargin alone (300 nM, to induce cell stress) or IT-139 plus thapsigargin. Cell lysates were collected at 16 hours and were analyzed by western blot for anti-GRP78 antibody and normalized by GAPDH.

CT26 cells = assay: CT26 subcutaneous syngeneic tumor model (Example 3); type: in vivo, mice; conditions: twice weekly, four doses; IT-139 30 mg/kg intravenously, RPM1-14 5 mg/kg intraperitoneally; through day 18
Method: Example 3. CT26 cells (1 million) were subcutaneously implanted in immunocompetent mice and allowed to grow until a palpable tumor was established (day 3). Groups of four mice per group were treated twice weekly with four total doses of either 1) saline, 2) IT-139 alone (KP1339, 30 mg/kg), 3) RPM1-14 (PD-1 antibody, 5 mg/kg), or 4) RPM1-14 and IT-139 (5 mg/kg and 30 mg/kg, respectively). IT-139 was administered intravenously and RPM1-14 was administered intraperitoneally. Administrations were made on the same day. Tumor volume was measured through day 18.

[9] = test system: GRP78 promoter fragment (−169 to −29; contains 3 ERSEs); assay: GRP78 promoter fragment luciferase reporter; type: cell-based
HCT116 = assay: Mitochondrial potential, JC-1 flow cytometry, HCT116 (Example 9); type: cell-based, human; conditions: HCT116, 50 μM IT-139, 24 h
Method: as §1

[10] = stressed cells (thapsigargin 300 nM)
[11] = Tu-stressed HCT116 cells (1.5 μg/mL tunicamycin)

[Cl][Ru-]([Cl])([Cl])[Cl].[Na+].c1ccc2[nH]ncc2c1.c1ccc2[nH]ncc2c1 [IT-139, sodium trans-[tetrachlorobis(1H-indazole)ruthenate(III)]]
effect on other arms of the UPR (induction XBP-1 spliced form; induction, processing and nuclear import of ATF6; phosphorylation of eIF2a) [1]: does not block other arms of the UPR | effect on basal GRP78 levels (GRP78 [2]; non-stressed normal cells): does not effect the basal GRP78 levels | effect on GRP78 up-regulation due to stress (GRP78 [2]; stressed normal cells): does not effect GRP78 up-regulation due to stress | mitochondrial potential (JC-1) (A375): increase in mitochondrial depolarization at high concentrations | mitochondrial potential (JC-1) (A549): increase in mitochondrial depolarization at high concentrations | cell morphology by electron microscopy (HCT116 cells): significant vacuolization, ER expansion and disorganization of intracellular organelles | synergy in combination with other anti-cancer drugs (tumor types; all different classes of anti-cancer drugs tested to date): marked synergy | anti-tumor activity in preclinical studies (tumor types; including tumor types resistant to standard anti-cancer agents): activity against a broad range of tumor types | cell death in MiaPaca2 cells (MiaPaca2 cells): increased cell death | effect on GRP78 mRNA expression (qRT-PCR, normalized to GAPDH) (GRP78 mRNA [3]; [10]): decreased the amount of GRP78 mRNA expression | effect on grp78 mRNA levels (qRT-PCR, normalized to GAPDH) (GRP78 mRNA [3]; unstressed cells): little impact | cell viability [4]: did not show any effect upon cell viability | Polymerase II binding to the Pol II promoter, reduced to (Pol II promoter; [11]): 40% | Polymerase II binding to the Pol II promoter (Pol II promoter; non-stressed HCT116 cells): minimal effect | suppression of GRP78 at the transcriptional level (Northern blot, normalized against β-actin) (GRP78 mRNA [5]): dose dependent manner | Polymerase II binding to the Grp78 promoter, dropped to (Grp78 promoter; [11]): zero | Polymerase II binding to the Grp78 promoter, dropped to (Grp78 promoter; non-stressed HCT116 cells): zero | mitochondrial potential (JC-1) (LNCaP): increase in mitochondrial depolarization at high concentrations | GRP78 immunostaining of tumors (GRP78 [6]): very weak staining | effect of order of dosing with thapsigargin (Tg) on GRP78 expression (GRP78 [7]): affects levels of GRP78 expression | mitochondrial potential (JC-1) (HT29): increased loss of mitochondrial potential | effect on GRP78 protein (western blot, normalized by GAPDH) (GRP78 [8]; [10]): decreased the amount of GRP78 | effect on GRP78 protein (western blot, normalized by GAPDH) (GRP78 [8]; unstressed cells): little to no effect | anti-tumor activity (tumor volume) (CT26 cells): demonstrated anti-tumor activity | stress-induction of GRP78 promoter fragment linked to luciferase reporter gene [9]: suppress stress-induction | mitochondrial potential (JC-1) (HCT116): increased loss of mitochondrial potential
